Reference: ChEMBL document CHEMBL1201861, “Genomics of Drug Sensitity in Cancer screening data, Wellcome Trust Sanger Institute”

How the values were obtained:
Experiment in all cases: cells
Settings in all cases: Homo sapiens
NCI-H526 = format: functional, cell-based;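 note: growth inhibition of the human NCI-H526 cell line, measured by a cell viability assay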
Description: SANGER: Inhibition of human NCI-H526 cell growth in a cell viability assay.

C2BBe1 = format: functional, cell-based;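 note: growth inhibition of C2BBe1 cells, read out through a viability assay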
Description: SANGER: Inhibition of human C2BBe1 cell growth in a cell viability assay.

CP66-MEL = format: functional, cell-based;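 note: growth inhibition of CP66-MEL cells determined in a cell viability assay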
Description: SANGER: Inhibition of human CP66-MEL cell growth in a cell viability assay.

BV-173 = format: functional, cell-based
Description: SANGER: Inhibition of human BV-173 cell growth in a cell viability assay.

KY821 = format: functional, cell-based;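 note: growth inhibition of human KY821 cells, read out by a cell viability assay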
Description: SANGER: Inhibition of human KY821 cell growth in a cell viability assay.

TGBC24TKB = format: functional, cell-based;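 note: growth inhibition of human TGBC24TKB cells, read out with a cell viability assay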
Description: SANGER: Inhibition of human TGBC24TKB cell growth in a cell viability assay.

TE-8 = format: functional, cell-based;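 note: growth inhibition of TE-8 cells, measured with a cell viability readout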
Description: SANGER: Inhibition of human TE-8 cell growth in a cell viability assay.

COLO-684 = format: functional, cell-based
Description: SANGER: Inhibition of human COLO-684 cell growth in a cell viability assay.

JAR = format: functional, cell-based;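 note: growth inhibition of human JAR cells determined with a cell viability assay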
Description: SANGER: Inhibition of human JAR cell growth in a cell viability assay.

COLO-800 = format: functional, cell-based;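 note: growth inhibition of COLO-800 cells, read out with a cell viability assay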
Description: SANGER: Inhibition of human COLO-800 cell growth in a cell viability assay.

HL-60 = format: functional, cell-based;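 note: growth inhibition of human HL-60 cells, read out with a cell viability assay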
Description: SANGER: Inhibition of human HL-60 cell growth in a cell viability assay.

Mo = format: functional, cell-based
Description: SANGER: Inhibition of human Mo-T cell growth in a cell viability assay.

COLO-829 = format: functional, cell-based
Description: SANGER: Inhibition of human COLO-829 cell growth in a cell viability assay.

LB373-MEL-D = format: functional, cell-based;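 note: growth inhibition of the cell line, read out in a cell viability assay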
Description: SANGER: Inhibition of human LB373-MEL-D cell growth in a cell viability assay.

LXF-289 cell line = format: functional, cell-based
Description: SANGER: Inhibition of human LXF-289 cell growth in a cell viability assay.

A498 = format: functional, cell-based;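 note: growth inhibition of human A498 cells, read out with a cell viability assay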
Description: SANGER: Inhibition of human A498 cell growth in a cell viability assay.

NCI-H1092 = format: functional, cell-based;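 note: cell growth inhibition measured with a cell viability assay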
Description: SANGER: Inhibition of human NCI-H1092 cell growth in a cell viability assay.

D-263MG = format: functional, cell-based
Description: SANGER: Inhibition of human D-263MG cell growth in a cell viability assay.

ALL-PO = format: functional, cell-based;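 note: growth inhibition of ALL-PO cells, read out by a cell viability assay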
Description: SANGER: Inhibition of human ALL-PO cell growth in a cell viability assay.

BT-474 = format: functional, cell-based
Description: SANGER: Inhibition of human BT-474 cell growth in a cell viability assay.

HAL-01 = format: functional, cell-based;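 note: growth inhibition of human HAL-01 cells, read out with a cell viability assay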
Description: SANGER: Inhibition of human HAL-01 cell growth in a cell viability assay.

NB6 = format: functional, cell-based;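 note: growth inhibition of NB6 cells, read out by a cell viability assay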
Description: SANGER: Inhibition of human NB6 cell growth in a cell viability assay.

LU-134-A = format: functional, cell-based
Description: SANGER: Inhibition of human LU-134-A cell growth in a cell viability assay.

HuTu80 = format: functional, cell-based, HUTU-80;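 note: growth inhibition of HuTu80 human cells, determined with a cell viability readout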
Description: SANGER: Inhibition of human HUTU-80 cell growth in a cell viability assay.

IST-MES1 = format: functional, cell-based;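 note: growth inhibition of IST-MES1 cells, measured with a cell viability assay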
Description: SANGER: Inhibition of human IST-MES1 cell growth in a cell viability assay.

MPP-89 = format: functional, cell-based;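 note: growth inhibition of human MPP-89 cells, read out with a cell viability assay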
Description: SANGER: Inhibition of human MPP-89 cell growth in a cell viability assay.

NH-12 = format: functional, cell-based;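 note: growth inhibition of NH-12 cells, read out with a cell viability assay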
Description: SANGER: Inhibition of human NH-12 cell growth in a cell viability assay.

LS-411N = format: functional, cell-based
GI-ME-N = format: functional, cell-based;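 note: growth inhibition of human GI-ME-N cells, read out with a cell viability assay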
Description: SANGER: Inhibition of human GI-ME-N cell growth in a cell viability assay.

RH-1 = format: functional, cell-based;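 note: growth inhibition of human RH-1 cells, read out with a cell viability assay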
Description: SANGER: Inhibition of human RH-1 cell growth in a cell viability assay.

COLO-320-HSR = format: functional, cell-based;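 note: growth inhibition of COLO-320-HSR cells, determined with a cell viability assay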
Description: SANGER: Inhibition of human COLO-320-HSR cell growth in a cell viability assay.

D283 Med = format: functional, cell-based
Description: SANGER: Inhibition of human D-283MED cell growth in a cell viability assay.

EW-18 = format: functional, cell-based;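 note: growth inhibition of EW-18 cells, read out by a cell viability assay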
Description: SANGER: Inhibition of human EW-18 cell growth in a cell viability assay.

LS-513 = format: functional, cell-based
Description: SANGER: Inhibition of human LS-513 cell growth in a cell viability assay.

EW-3 = format: functional, cell-based;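 note: cell viability assay read-out, IC50 reflects inhibition of growth of the EW-3 cells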
Description: SANGER: Inhibition of human EW-3 cell growth in a cell viability assay.

L-428 = format: functional, cell-based
Description: SANGER: Inhibition of human L-428 cell growth in a cell viability assay.

BB49-HNC = format: functional, cell-based;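 note: cell viability assay read-out, reported as inhibition of BB49-HNC cell growth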
Description: SANGER: Inhibition of human BB49-HNC cell growth in a cell viability assay.

EW-11 = format: functional, cell-based;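 note: growth inhibition of human EW-11 cells, measured with a cell viability assay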
Description: SANGER: Inhibition of human EW-11 cell growth in a cell viability assay.

NKM-1 = format: functional, cell-based;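 note: growth inhibition of NKM-1 cells, read out with a cell viability assay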
Description: SANGER: Inhibition of human NKM-1 cell growth in a cell viability assay.

OVCAR-4 = format: functional, cell-based;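 note: growth inhibition of human OVCAR-4 cells, measured with a cell viability assay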
Description: SANGER: Inhibition of human OVCAR-4 cell growth in a cell viability assay.

NB10 = format: functional, cell-based;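 note: growth inhibition of NB10 cells, read out by a cell viability assay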
Description: SANGER: Inhibition of human NB10 cell growth in a cell viability assay.

EKVX = format: functional, cell-based;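 note: growth inhibition of human EKVX cells, read out with a cell viability assay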
Description: SANGER: Inhibition of human EKVX cell growth in a cell viability assay.

KARPAS-299 = format: functional, cell-based
Description: SANGER: Inhibition of human KARPAS-299 cell growth in a cell viability assay.

SW684 = format: functional, cell-based;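 note: growth inhibition of human SW684 cells, measured by a cell viability assay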
Description: SANGER: Inhibition of human SW684 cell growth in a cell viability assay.

CW-2 = format: functional, cell-based;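 note: growth inhibition of CW-2 cells, read out by a cell viability assay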
Description: SANGER: Inhibition of human CW-2 cell growth in a cell viability assay.

LB771-HNC = format: functional, cell-based;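 note: growth inhibition of LB771-HNC human cells, read out with a cell viability assay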
Description: SANGER: Inhibition of human LB771-HNC cell growth in a cell viability assay.

OCUB-M = format: functional, cell-based;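 note: growth inhibition of the cancer cell line, read out through a cell viability assay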
Description: SANGER: Inhibition of human OCUB-M cell growth in a cell viability assay.

LB1047-RCC = format: functional, cell-based;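 note: inhibition of cell growth, determined with a cell viability assay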
Description: SANGER: Inhibition of human LB1047-RCC cell growth in a cell viability assay.

LB831-BLC = format: functional, cell-based;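 note: growth inhibition of LB831-BLC cells, read out with a cell viability assay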
Description: SANGER: Inhibition of human LB831-BLC cell growth in a cell viability assay.

COR-L88 = format: functional, cell-based;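 note: growth inhibition of COR-L88 cells, read out with a cell viability assay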
Description: SANGER: Inhibition of human COR-L88 cell growth in a cell viability assay.

Lu-65 = format: functional, cell-based;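 note: growth inhibition of Lu-65 cancer cells, read out by a cell viability assay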
Description: SANGER: Inhibition of human LU-65 cell growth in a cell viability assay.

BB30-HNC = format: functional, cell-based;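 note: growth inhibition of the cultured cell line, read out by a cell viability assay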
Description: SANGER: Inhibition of human BB30-HNC cell growth in a cell viability assay.

DSH1 = format: functional, cell-based;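 note: growth inhibition of human DSH1 cells, measured with a cell viability readout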
Description: SANGER: Inhibition of human DSH1 cell growth in a cell viability assay.

NCI-H1650 = format: functional, cell-based;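 note: growth inhibition of human NCI-H1650 cells measured by a cell viability assay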
Description: SANGER: Inhibition of human NCI-H1650 cell growth in a cell viability assay.

MSTO-211H = format: functional, cell-based
Description: SANGER: Inhibition of human MSTO-211H cell growth in a cell viability assay.

NCI-H1355 = format: functional, cell-based;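 note: growth inhibition of human NCI-H1355 cells, read out by a cell viability assay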
Description: SANGER: Inhibition of human NCI-H1355 cell growth in a cell viability assay.

SK-UT-1 = format: functional, cell-based;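 note: growth inhibition of SK-UT-1 cells, measured by a cell viability assay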
Description: SANGER: Inhibition of human SK-UT-1 cell growth in a cell viability assay.

KE-37 = format: functional, cell-based;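 note: growth inhibition of KE-37 cells, read out with a cell viability assay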
Description: SANGER: Inhibition of human KE-37 cell growth in a cell viability assay.

NCI-H510A = format: functional, cell-based;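 note: growth inhibition of NCI-H510A cells, read out with a cell viability assay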
Description: SANGER: Inhibition of human NCI-H510A cell growth in a cell viability assay.

COLO-668 = format: functional, cell-based
Description: SANGER: Inhibition of human COLO-668 cell growth in a cell viability assay.

LNCaP-Clone-FGC = format: functional, cell-based
Description: SANGER: Inhibition of human LNCaP-Clone-FGC cell growth in a cell viability assay.

SHP77 = format: functional, cell-based, SHP-77;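 note: growth inhibition of human SHP-77 cells measured by a cell viability assay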
Description: SANGER: Inhibition of human SHP-77 cell growth in a cell viability assay.

MHH-NB-11 = format: functional, cell-based;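 note: growth inhibition of human MHH-NB-11 cells, read out by a cell viability assay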
Description: SANGER: Inhibition of human MHH-NB-11 cell growth in a cell viability assay.

TE-1 = format: functional, cell-based;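 note: growth inhibition of the human TE-1 cell line, read out with a cell viability assay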
Description: SANGER: Inhibition of human TE-1 cell growth in a cell viability assay.

SW 962 = format: functional, cell-based;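 note: growth inhibition of human SW962 cells, read out by a cell viability assay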
Description: SANGER: Inhibition of human SW962 cell growth in a cell viability assay.

Q: What does the source list for `CC[C@]1(O)C[C@@H]2CN(CCc3c([nH]c4ccccc34)[C@@](C(=O)OC)(c3cc4c(cc3OC)N(C)[C@H]3[C@@](O)(C(=O)OC)[C@H](OC(C)=O)[C@]5(CC)C=CCN6CC[C@]43[C@@H]65)C2)C1` [VINBLASTINE]?
A: IC50 (NCI-H526): 0.00514 µM; IC50 (C2BBe1): 0.0169 µM; IC50 (CP66-MEL): 0.0486 µM; IC50 (BV-173): 0.0423 µM; IC50 (KY821): 0.00369 µM; IC50 (TGBC24TKB): 0.0325 µM; IC50 (TE-8): 0.00616 µM; IC50 (COLO-684): 0.00767 µM; IC50 (JAR): 0.000608 µM; IC50 (COLO-800): 0.00334 µM; IC50 (HL-60): 0.00437 µM; IC50 (Mo): > 0.1 µM; IC50 (COLO-829): 0.0192 µM; IC50 (LB373-MEL-D): 0.0641 µM; IC50 (LXF-289 cell line): 0.0103 µM; IC50 (A498): 0.00594 µM; IC50 (NCI-H1092): > 0.1 µM; IC50 (D-263MG): 0.00928 µM; IC50 (ALL-PO): 0.00521 µM; IC50 (BT-474): 0.0942 µM; IC50 (HAL-01): > 0.1 µM; IC50 (NB6): 0.08 µM; IC50 (LU-134-A): 0.00858 µM; IC50 (HuTu80): 0.0123 µM; IC50 (IST-MES1): 0.0677 µM; IC50 (MPP-89): 0.0303 µM; IC50 (NH-12): 0.0263 µM; IC50 (LS-411N): 0.0664 µM; IC50 (GI-ME-N): 0.00608 µM; IC50 (RH-1): 0.0034 µM; IC50 (COLO-320-HSR): > 0.1 µM; IC50 (D283 Med): 0.0391 µM; IC50 (EW-18): > 0.1 µM; IC50 (LS-513): 0.0563 µM; IC50 (EW-3): 0.0372 µM; IC50 (L-428): > 0.1 µM; IC50 (BB49-HNC): 0.0126 µM; IC50 (EW-11): 0.00715 µM; IC50 (NKM-1): 0.00127 µM; IC50 (OVCAR-4): 0.0279 µM; IC50 (NB10): 0.00732 µM; IC50 (EKVX): > 0.1 µM; IC50 (KARPAS-299): > 0.1 µM; IC50 (SW684): > 0.1 µM; IC50 (CW-2): > 0.1 µM; IC50 (LB771-HNC): 0.00857 µM; IC50 (OCUB-M): 0.00756 µM; IC50 (LB1047-RCC): 0.0403 µM; IC50 (LB831-BLC): 0.0212 µM; IC50 (COR-L88): 0.0243 µM; IC50 (Lu-65): > 0.1 µM; IC50 (BB30-HNC): 0.00831 µM; IC50 (DSH1): 0.0232 µM; IC50 (NCI-H1650): > 0.1 µM; IC50 (MSTO-211H): 0.0122 µM; IC50 (NCI-H1355): 0.0195 µM; IC50 (SK-UT-1): 0.0117 µM; IC50 (KE-37): 0.00399 µM; IC50 (NCI-H510A): 0.00275 µM; IC50 (COLO-668): > 0.1 µM; IC50 (LNCaP-Clone-FGC): 0.00828 µM; IC50 (SHP77): > 0.1 µM; IC50 (MHH-NB-11): 0.0389 µM; IC50 (TE-1): 0.0109 µM; IC50 (SW 962): 0.0194 µM
